# Experimental data published in patent US20120101134A1, “5-MEMBERED HETEROARYL DERIVATIVES USED AS SPHINGOSINE 1-PHOSPHATE RECEPTOR AGONISTS” (GLAXO GROUP LIMITED, priority 2009, published 2012).
# Molecular target: T1, human Endothelial Differentiation Gene 1 (EDG1) (Homo sapiens, UniProt P21453)
# T1 construct: TEV protease site; Gal4-VP16 transcription factor; expressed in transfected cells; host or cells: EDG1-bla/U2OS (Tango GPCR-bla U2OS parental cell line)
# Assay: S1P1 Tango assay - 384 well format
# Assay type: cell-based
# Conditions: EDG1-bla/U2OS cells, agonist
# Experimental: S1P1 Tango assay—384 Well Format
# Recombinant EDG1-bla/U2OS cells (contain the human Endothelial Differentiation Gene 1 (EDG1) linked to a TEV protease site and a Gal4-VP16 transcription factor stably integrated into the Tango GPCR-bla U2OS parental cell line) were harvested from growth medium and passaged into assay medium (Invitrogen Freestyle Expression Medium). The cells were starved for 24 hours at 37° C., 5% CO2, harvested and resuspended in assay medium at a density of ˜200,000 cells/ml. All test compounds were dissolved in DMSO at a concentration of 10 mM and were prepared in 100% DMSO to provide 10 point dose response curves. Test compounds prepared by Bravo (Velocity11) were added to wells in columns 2-11 and 13-22; DMSO was added to wells in columns 12 and 23 as unstimulated controls and assay medium was added to wells in columns 1 and 24 as cell-free controls. An S1P1 agonist was added to wells in row 2, columns 2-11 as stimulated controls and test compounds were added to wells in row 2, columns 13-22 and rows 3-15, columns 2-11/13-22 (row 1 and 16 were empty and not used). Compounds in solution were added to the assay plate (Greiner 781090) using an Echo (Labcyte) dose-response program (50 nl/well). The unstimulated and cell-free controls were loaded with 50 nl/well pure DMSO to ensure that the DMSO concentration was constant across the plate for all assays.
# 50 μl of the cell suspension was added to each well in columns 2-23 of the plate (˜10,000 cells per well). 50 μl of assay medium was added to each well in the cell-free controls (columns 1 and 24). The cells were incubated overnight at 37° C./5% CO2.
# 10 μl of 6× substrate mixture (LiveBLAzer™-FRET B/G substrate (CCF4-AM) Cat #K1096 from Invitrogen, Inc.) was added to each well using Bravo and the plates incubated at room temperature for 2 h in the dark. The plate was finally read on EnVision using one excitation channel (409 nm) and two emission channels (460 nm and 530 nm).
# The blue/green emission ratio (460 nm/530 nm) was calculated for each well, by dividing the background-subtracted Blue emission values by the background-subtracted Green emission values. The dose response curve is based on sigmoidal dose-response model. All ratio data was normalized based upon the maximum emission ratio of positive control and minimum emission ratio of negative control (DMSO) on each plate. The intrinsic activity (IA) of each compound would be the normalized percentage of its maximum response after curve fitting.
# T1 sequence (P21453 whole entry, the tested form may be a part): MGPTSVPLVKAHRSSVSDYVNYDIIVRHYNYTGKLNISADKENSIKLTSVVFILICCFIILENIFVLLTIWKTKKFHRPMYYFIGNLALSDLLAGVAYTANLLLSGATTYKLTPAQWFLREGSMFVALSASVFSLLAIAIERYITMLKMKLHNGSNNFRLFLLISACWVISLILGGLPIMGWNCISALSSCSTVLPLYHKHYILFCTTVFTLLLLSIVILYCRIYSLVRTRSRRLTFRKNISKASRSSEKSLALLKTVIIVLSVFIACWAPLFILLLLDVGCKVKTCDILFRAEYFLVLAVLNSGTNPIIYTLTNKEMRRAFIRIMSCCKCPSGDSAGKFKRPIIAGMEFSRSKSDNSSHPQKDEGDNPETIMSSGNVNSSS
row,SMILES,EC50 [nM]
1,"Cc1c(-c2noc(-c3ccc(OC(C)C)c(Cl)c3)n2)ccnc1CCCC(=O)O [Example 7, 4-[4-(5-{3-chloro-4-[(1-methylethyl)oxy]phenyl}-1,2,4-oxadiazol-3-yl)-3-methyl-2-pyridinyl]butanoic acid]",≤ 10
2,"CC(C)Oc1ccc(-c2nc(-c3cccc(CCCC(=O)O)c3Cl)no2)cc1C#N [Example 11, 4-[2-chloro-3-(5-{3-cyano-4-[(1-methylethyl)oxy]phenyl}-1,2,4-oxadiazol-3-yl)phenyl]butanoic acid]",≤ 1
3,"CCc1c(CCCC(=O)O)cccc1-c1noc(-c2cnc(OC(C)C)c(Cl)c2)n1 [Example 14, 4-[3-(5-{5-chloro-6-[(1-methylethyl)oxy]-3-pyridinyl}-1,2,4-oxadiazol-3-yl)-2-ethylphenyl]butanoic acid]",≤ 10
4,"CCc1c(CCCC(=O)O)cccc1-c1noc(-c2ccc(OC(C)C)c(C#N)c2)n1 [Example 15, 4-[3-(5-{3-cyano-4-[(1-methylethyl)oxy]phenyl}-1,2,4-oxadiazol-3-yl)-2-ethylphenyl]butanoic acid]",≤ 1
5,"COc1c(CCCC(=O)O)cccc1-c1noc(-c2ccc(OC(C)C)c(Cl)c2)n1 [Example 17, 4-[3-(5-{3-chloro-4-[(1-methylethyl)oxy]phenyl}-1,2,4-oxadiazol-3-yl)-2-(methyloxy)phenyl]butanoic acid]",≤ 1
6,"CC(C)Oc1ccc(-c2nc(-c3ccc(F)c(CCC(=O)O)c3)no2)cc1C#N [Example 22, 3-[5-(5-{3-cyano-4-[(1-methylethyl)oxy]phenyl}-1,2,4-oxadiazol-3-yl)-2-fluorophenyl]propanoic acid]",≤ 1000
7,"CC(C)Oc1ccc(-c2nc(-c3cccc(CCCC(=O)O)c3C(F)(F)F)no2)cc1C#N [Example 25, 4-[3-(5-{3-cyano-4-[(1-methylethyl)oxy]phenyl}-1,2,4-oxadiazol-3-yl)-2-(trifluoromethyl)phenyl]butanoic acid]",≤ 100
8,"CCc1c(CCCC(=O)O)cccc1-c1noc(-c2ccc(OC(C)C)c(Cl)c2)n1 [Example 28, 4-[3-(5-{3-chloro-4-[(1-methylethyl)oxy]phenyl}-1,2,4-oxadiazol-3-yl)-2-ethylphenyl]butanoic acid]",≤ 1
9,"CCc1c(CCC(=O)O)cccc1-c1noc(-c2ccc(OC(C)C)c(Cl)c2)n1 [Example 29, 3-[3-(5-{3-chloro-4-[(1-methylethyl)oxy]phenyl}-1,2,4-oxadiazol-3-yl)-2-ethylphenyl]propanoic acid]",≤ 1

# The next lines start with the values.
row,EC50 [nM],SMILES
1,≤ 10,"CC(C)Oc1ncc(-c2nc(-c3cccc(CCC(=O)O)c3Cl)no2)cc1Cl [Example 8, 3-[2-chloro-3-(5-{5-chloro-6-[(1-methylethyl)oxy]-3-pyridinyl}-1,2,4-oxadiazol-3-yl)phenyl]propanoic acid]"
2,≤ 1,"CC(C)Oc1ccc(-c2nc(-c3cccc(CCCCCC(=O)O)c3Cl)no2)cc1C#N [Example 12, 6-[2-chloro-3-(5-{3-cyano-4-[(1-methylethyl)oxy]phenyl}-1,2,4-oxadiazol-3-yl)phenyl]hexanoic acid]"
3,≤ 1000,"CC(C)Oc1ccc(-c2nc(-c3ccnc(CCC(=O)O)c3)no2)cc1C#N [Example 20, 3-[4-(5-{3-cyano-4-[(1-methylethyl)oxy]phenyl}-1,2,4-oxadiazol-3-yl)-2-pyridinyl]propanoic acid]"
4,≤ 1000,"CC(C)Oc1ccc(-c2nc(-c3ccc(F)c(CCCC(=O)O)c3)no2)cc1C#N [Example 23, 4-[5-(5-{3-cyano-4-[(1-methylethyl)oxy]phenyl}-1,2,4-oxadiazol-3-yl)-2-fluorophenyl]butanoic acid]"
5,≤ 10,"CC(C)Oc1ccc(-c2nc(-c3cccc(CCC(=O)O)c3C(F)(F)F)no2)cc1C#N [Example 24, 3-[3-(5-{3-cyano-4-[(1-methylethyl)oxy]phenyl}-1,2,4-oxadiazol-3-yl)-2-(trifluoromethyl)phenyl]propanoic acid]"
